From ChEMBL document CHEMBL1201862, “PubChem BioAssay data set” (2004) come the findings set out here.

Holding throughout (experiment): inhibition of tumour cell growth, NCI panel, 48 h
Experiment [1] relates to A498.
In experiment [2] the test system is BT-549.
Experiment [3] concerns CAKI-1.
Experiment [4] concerns CCRF-CEM.
For experiment [5], the system named is HCT-116.
Experiment [6] concerns HL-60.
For experiment [7], the system named is HOP-92.
Experiment [8] has as its system HT-29.
Experiment [9] has as its system Hs-578T.
Experiment [10] relates to K562.
The test system of experiment [11] is LOX IMVI.
Experiment [12] deals with MDA-N.
For experiment [13], the system named is NCI-H522.
Experiment [14] deals with OVCAR-8.
For experiment [15], the system named is SNB-19.
Experiment [16] has as its system SNB-75.
Experiment [17] deals with T47D.
Experiment [18] has as its system UACC-257.
Experiment [19] relates to UACC-62.
The subject of experiment [20] is HCC 2998.

Each structure is given as a SMILES string.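 Protocol summary: plate cells (96-well), add compound at 5 concentrations, incubate 48 h, interpolate endpoints linearly. GI50 is the concentration that inhibits growth by half.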 Active and inactive are the calls of the source. No stated cut-off is given here; in the data, active = GI50 up to about 1.1 µM and inactive = higher.

For `CC(C)Oc1cc(O)c2c(c1)OCC=C2CCC(=O)O`, the GI50 is 21.4 µM (inactive) in [1]; 31.3 µM (inactive) in experiment [2]; 37.2 µM (inactive) in experiment [3]; 22.8 µM (inactive) in [4]; 20.4 µM (inactive) in experiment [5]; 20.6 µM (inactive) in experiment [6]. The GI50 is 20 µM (inactive) in [7]; 19.9 µM (inactive) in experiment [8]; 42.2 µM (inactive) in [9]; 28.4 µM (inactive) in experiment [10]; 33.1 µM (inactive) in experiment [11]; 21.7 µM (inactive) in experiment [12]. The GI50 in [13] was 21.2 µM (inactive); in experiment [14], 36.1 µM (inactive); in [15], 38 µM (inactive); in experiment [16], 31 µM (inactive); in [17] it was 39.3 µM (inactive); in experiment [18] it was 20.2 µM (inactive). Moreover, the GI50 in experiment [19] was 26.9 µM (inactive).
As to `O=C(O)CCC(N/N=N/c1ccc(-c2nc3ccccc3[nH]2)cc1)C(=O)O` (configuration not stated), the GI50 in [1] is > 100 µM (inactive); in [2], 23.9 µM (inactive); in [3] it was 61.4 µM (inactive); in experiment [4] it was 15 µM (inactive); in experiment [5], 70.8 µM (inactive); in experiment [6] it was 37.2 µM (inactive). The GI50 in experiment [7] is 36.1 µM (inactive); in [8], 58.1 µM (inactive); in experiment [9] it was 44.4 µM (inactive); in experiment [10], 30.1 µM (inactive); in experiment [11], 43.1 µM (inactive); in experiment [12], 56 µM (inactive). Besides, the GI50 in [13] was > 100 µM (inactive); in experiment [14], 34.8 µM (inactive); in [15], > 100 µM (inactive); in [16] it was 59.2 µM (inactive); in experiment [17], 30.7 µM (inactive); in experiment [18], > 100 µM (inactive).
With `C/N=c1\sc2c(n1C)C(=O)c1ccccc1C2=O`, the GI50 was 15.7 µM (inactive) in [1]; 1.76 µM (inactive) in [2]; 8.41 µM (inactive) in experiment [3]; 4.15 µM (inactive) in [4]; 7.73 µM (inactive) in [20]; 2.85 µM (inactive) in [5]. Besides, the GI50 is 10.3 µM (inactive) in experiment [7]; 3.04 µM (inactive) in experiment [8]; 2.39 µM (inactive) in [9]; 3.37 µM (inactive) in [10]; 1.27 µM (inactive) in experiment [11]; 0.222 µM (active) in experiment [12]. Also, the GI50 in experiment [13] was 9.31 µM (inactive); in [14], 3.2 µM (inactive); in experiment [15], 3.4 µM (inactive); in [16], 2.06 µM (inactive); in [17] it was 3.78 µM (inactive); in experiment [18] it was 1.53 µM (inactive). In experiment [19], the GI50 is 2.11 µM (inactive).
As to `CNc1ncnc(Sc2nc(N)nc3[nH]cnc23)c1[N+](=O)[O-]`, the GI50 in experiment [1] is 17.9 µM (inactive); in experiment [2], 2.6 µM (inactive); in experiment [3] it was 0.582 µM (active); in [4] it was 0.084 µM (active); in [5] it was 0.39 µM (active); in experiment [6] it was 1.91 µM (inactive). The GI50 in [7] was 0.52 µM (active); in experiment [8], 1.09 µM (active); in [9] it was 3.24 µM (inactive); in experiment [10], 0.33 µM (active); in [11], 0.189 µM (active); in experiment [12], 0.552 µM (active). Moreover, the GI50 in [13] was 0.635 µM (active); in experiment [14], 0.622 µM (active); in experiment [15], 35.6 µM (inactive); in [16], 0.406 µM (active); in experiment [17] it was 0.995 µM (active); in experiment [18], 1.54 µM (inactive). In experiment [19], the GI50 was 0.586 µM (active).
For the compound `S=C1SCN(C2CCCCCCCCCCC2)CN1C1CCCCCCCCCCC1`, the GI50 in [1] was > 100 µM (inactive); in [2], > 100 µM (inactive); in experiment [3] it was > 100 µM (inactive); in [4], 34.4 µM (inactive); in experiment [5], > 100 µM (inactive); in experiment [6], 38.2 µM (inactive). The GI50 in [7], in experiment [8], in experiment [9], in [10], in experiment [11] and in [12] was > 100 µM (inactive) throughout. Moreover, the GI50 was 67.5 µM (inactive) in [13]; > 100 µM (inactive) in experiment [14]; > 100 µM (inactive) in experiment [15]; > 100 µM (inactive) in [16]; > 100 µM (inactive) in [17]; > 100 µM (inactive) in [18]. Besides, the GI50 in experiment [19] is 97.9 µM (inactive).
Consider `O=[N+]([O-])/C=C/c1cccc(F)c1`, for which the GI50 in experiment [1] is 13.7 µM (inactive); in experiment [2] it was 2.03 µM (inactive); in experiment [3] it was 12.9 µM (inactive); in experiment [4], 2.22 µM (inactive); in experiment [20], 12 µM (inactive); in experiment [5], 0.603 µM (active). Further, the GI50 in experiment [7] is 11.6 µM (inactive); in experiment [8] it was 3.18 µM (inactive); in experiment [9] it was 3.12 µM (inactive); in experiment [11], 0.912 µM (active); in experiment [12], 2.64 µM (inactive); in [13], 12.3 µM (inactive). Moreover, the GI50 is 11.7 µM (inactive) in experiment [14]; 11.7 µM (inactive) in experiment [15]; 13.7 µM (inactive) in [16]; 4.88 µM (inactive) in experiment [17]; 3.79 µM (inactive) in experiment [18]; 8.04 µM (inactive) in [19].
As to `COc1cc(S(=O)(=O)Nc2ccc(-c3csc(/N=C\c4ccccc4O)n3)cc2)ccc1Cl`, the GI50 was > 100 µM (inactive) in experiment [1]; 43.7 µM (inactive) in [2]; > 100 µM (inactive) in [3]; 22.3 µM (inactive) in experiment [4]; 43.1 µM (inactive) in [5]; 24.4 µM (inactive) in experiment [6]. Also, the GI50 is > 100 µM (inactive) in [7]; > 100 µM (inactive) in [8]; > 100 µM (inactive) in [9]; 28.2 µM (inactive) in [10]; 35.5 µM (inactive) in [11]; 33.9 µM (inactive) in experiment [12]. Further, the GI50 was 37.8 µM (inactive) in experiment [13]; > 100 µM (inactive) in [14]; 39.3 µM (inactive) in experiment [15]; 55.2 µM (inactive) in experiment [16]; 16.9 µM (inactive) in experiment [17]; 31.6 µM (inactive) in experiment [19].
As to `O=C(O)C(Cc1c[nH]c2ccccc12)N1C(=O)c2ccccc2C1=O` (configuration not stated), the GI50 in [1] is > 100 µM (inactive); in experiment [2] it was > 100 µM (inactive); in experiment [3], > 100 µM (inactive); in experiment [20] it was > 100 µM (inactive); in experiment [5] it was > 100 µM (inactive); in experiment [7], 0.785 µM (active). Besides, the GI50 is > 100 µM (inactive) in experiment [8]; > 100 µM (inactive) in [9]; > 100 µM (inactive) in [11]; > 100 µM (inactive) in experiment [12]; > 100 µM (inactive) in experiment [13]; 7.21 µM (inactive) in [14]. The GI50 in experiment [15], in experiment [16], in experiment [17], in experiment [18] and in [19] was > 100 µM (inactive) each time.
